Test results from paper PMC12138593, “Synthesis, Crystal Design and Anticancer Potential of Novel Cu(II), Ni(II), and Pd(II) Complexes with Carbazate Ligand” (ACS Omega, 2025).

Key:
MCF-7 = assay: MTT cytotoxicity assay, MCF-7 breast cancer cells; assay type: cell-based, human; details: IC50 ± SD
Procedure: (§1) Human cell lines A549 (lung cancer, ATCC No. CCL-185), MRC-5 (nontumoral lung, ATCC No. CCL-171), MCF-7 (breast cancer, ATCC No. HTB-22), and A2780cis (cisplatin-resistant ovarian cancer, ECACC No. 93112517) were used to evaluate the cytotoxic activity of the metal complexes. The A549 and MRC-5 cell lines were cultured in DMEM (Dulbecco’s Modified Eagle’s Medium), while the MCF-7 and A2780cis cell lines were maintained in RPMI-1640 (Roswell Park Memorial Institute) medium. Both media were supplemented with 10% fetal bovine serum (FBS), penicillin (100 U/mL), streptomycin ([…]), and L-glutamine (2 mM). The cells were grown in monolayers using disposable 25 cm^2 flasks and incubated at 37 °C in a 5% CO2 atmosphere.
(§2) The cytotoxicity of the compounds was determined using the MTT colorimetric assay (3-(4,5-dimethylthiazol-2-yl)-2,5-diphenyl tetrazolium bromide), as described by Mosmann. The cells were trypsinized for counting and concentration adjustment and then seeded in 96-well plates (1.5 × 10^4 cells/well). The plates were incubated at 37 °C in a 5% CO2 atmosphere for 24 h to allow cell adhesion. […] Absorbance was measured at 570 nm using a Varioskan LUX Multimode Microplate Reader (VL000D0). […]

MRC-5 = assay: MTT cytotoxicity assay, MRC-5 noncancerous lung cells; assay type: cell-based, human; details: IC50 ± SD
Procedure: as §1, §2

A2780cis = assay: MTT cytotoxicity assay, A2780cis cisplatin-resistant ovarian cancer cells; assay type: cell-based, human; details: 48 h, IC50 ± SD
Procedure: as §1, §2

A549 = assay: MTT cytotoxicity assay, A549 lung cancer cells; assay type: cell-based, human; details: IC50 ± SD
Procedure: as §1, §2

[1] = Molar conductance in DMSO over 48 h; assay type: physicochemical; details: 10^-3 M in DMSO, room temperature
Procedure: DMSO solutions (10^–3 M) of the Hapmc and metal(II) complexes were subjected to molar conductance measurements at room temperature over 48 h, and the observed values are presented in Table S2.
The solvents and reagents were purchased from commercial sources and used without purification. The FT-IR spectra of the compounds were obtained from KBr pellets, using an FT-IR Varian 640 spectrometer in the range of 4000–400 cm^–1. Electrospray ionization mass spectrometry analysis (ESI-MS) was performed on an AB Sciex Triple TOF 5600+ mass spectrometer in positive mode, with a voltage of 5500 V and source temperature of 200 °C. ^1H nuclear magnetic resonance spectra were collected on a Varian Mercury Plus (600 MHz), with TMS as internal reference and DMSO-d 6 as solvent. Elemental analysis of CHN was performed with a PerkinElmer/Series II 2400 analyzer. Electronic spectra were obtained using a UV–vis–NIR Varian Cary 5000 spectrophotometer using 20 μM or 1 mM solutions prepared in methanol or DMF. The molar conductance of a 10^–3 M solution of ligand and metal complexes in DMSO was measured at room temperature using a Quimis Q405 M conduct meter.

Row | Molar conductivity, 0 hours ([1]; 0 hours) | Molar conductivity, 24 hours ([1]; 24 hours) | Molar conductivity, 48 hours ([1]; 48 hours) | SMILES | IC50 (MCF-7; 48 h) | IC50 (MRC-5; 48 h) | IC50 (A2780cis) | IC50 (A549; 48 h) | IC50 (MCF-7; Homo sapiens, MCF7, 48 h) | IC50 (MRC-5; Homo sapiens, MRC5, 48 h) | IC50 (A2780cis; Homo sapiens, A2780cis) | IC50 (A549; Homo sapiens, A549, 48 h)
1 | – | – | – | N.N.[Cl][Pt][Cl] [Cisplatin, reference compound] | 14 µM | 29.1 µM | 37 µM | 11.5 µM | – | – | – | –
2 | 1.90 Ω -1.cm2.mol-1 | 2.37 Ω -1.cm2.mol-1 | 2.48 Ω -1.cm2.mol-1 | COC(=O)N/N=C(\C)c1ccccn1 [Hapmc, 2-acetylpyridine-methylcarbazate] | – | – | – | – | > 100 µM | > 100 µM | > 100 µM | > 100 µM
